The values below are quoted from earlier work in patent US12630504B2, “Phenethylamine derivatives, compositions, and methods of use” (CYBIN IRL LIMITED, priority 2020, dated 2026).

Take `NCCc1ccc2c(c1)OCO2` [MDPEA, 3,4-methylenedioxyphenethylamine]: the biological activity entry (due to extensive first-pass metabolism) is “biologically inactive”.
With `COc1cc(CCN)cc(OC)c1OC` [Mescaline, 3,4,5-trimethoxyphenethylamine], the “oral dose at which orally active” value (oral, only at high doses owing to low brain bioavailability) was roughly 300 mg.
